In patent US4103082A, “Aminocyclitol derivatives and process for producing the same” (priority 1975, dated 1978):
In brackets after ≈: the same amount, converted by molar mass.

Columns and labels:
[1] = test system: Vibrio parahaemolyticus K-3; assay: antibacterial activity (Minimum Inhibitory Concentration); type: cell-based; conditions: K3; Vibrio parahaemolyticus K-3; read-out: MIC
[2] = test system: Enterococcus species C73-33; assay: as above; type: cell-based; conditions: C7333; Enterococcus species C73-33; read-out: MIC
Klebsiella 7 = assay: paper disk method, inhibitory zone diameter; type: cell-based; conditions: Klebsiella, 7
E. coli C73-12 = assay: antibacterial activity (Minimum Inhibitory Concentration); type: cell-based; conditions: Escherichia coli, C7312
Proteus morganii Kono = assay: as above; type: cell-based; conditions: Morganella morganii
[3] = test system: Enterococcus species C73-17; assay: as above; type: cell-based; conditions: C7317; Enterococcus species C73-17; read-out: MIC
microorganisms indicated = assay: antimicrobial activities, paper disk method (general statement); type: cell-based; conditions: Tables 1 to 4
Procedure: The inhibitory activities were determined at various concentrations of the compounds using the paper disk method against the microorganisms indicated and the numerical values show the inhibitory zone diameter in terms of mm.

[4] = test system: E. coli HL-1629 (Kanamycin-resistant strain); assay: microbe, parasite or virus in culture; type: cell-based; conditions: Escherichia coli, read-out: inhibitory zone diameter
Pseudomonas 1007 = assay: paper disk method, inhibitory zone diameter; type: cell-based; conditions: Pseudomonas, 1007; 2000 γ/ml; read-out: inhibitory zone diameter
[5] = test system: Shigella dysenteriae Shigae; assay: microbe, parasite or virus in culture; type: cell-based
E. coli C73-4 = assay: antibacterial activity (Minimum Inhibitory Concentration); type: cell-based; conditions: Escherichia coli, C734; E. coli C73-4; read-out: MIC
E. coli C73-1 = assay: as above; type: cell-based; conditions: Escherichia coli, C731; E. coli C73-1; read-out: MIC
Proteus species C73-23 = assay: as above; type: cell-based; conditions: Proteus species C73-23; read-out: MIC
[6] = test system: Staphylococcus aureus Smith S-424; assay: as above; type: cell-based; conditions: SMITHS424; Staphylococcus aureus Smith S-424; read-out: MIC
Klebsiella pneumoniae = assay: as above; type: cell-based; conditions: read-out: MIC
[7] = test system: Staphylococcus albus PCI-1200A; assay: as above; type: cell-based; conditions: PCI1200A; Staphylococcus albus PCI-1200A; read-out: MIC
Proteus species C73-33 = assay: as above; type: cell-based; conditions: Proteus species C73-33; read-out: MIC
male ICR mice = assay: acute toxicity; conditions: intravenous administration, 200 mg/kg
[8] = test system: Vibrio parahaemolyticus K-5; assay: antibacterial activity (Minimum Inhibitory Concentration); type: cell-based; conditions: K5; Vibrio parahaemolyticus K-5; read-out: MIC
Mycobacterium 607 = assay: paper disk method, inhibitory zone diameter; type: cell-based; conditions: Mycobacterium, 607, read-out: inhibitory zone diameter
[9] = test system: Salmonella species C73-30; assay: antibacterial activity (Minimum Inhibitory Concentration); type: cell-based; conditions: C7330
[10] = test system: Vibrio parahaemolyticus K-7; assay: as above; type: cell-based; conditions: K7; Vibrio parahaemolyticus K-7; read-out: MIC
Klebsiella 6 = assay: paper disk method, inhibitory zone diameter; type: cell-based; conditions: Klebsiella, 6
[11] = test system: Staphylococcus aureus No. 26; assay: antibacterial activity (Minimum Inhibitory Concentration); type: cell-based; conditions: Staphylococcus aureus No. 26; read-out: MIC
E. coli K-12 = assay: paper disk method, inhibitory zone diameter; type: cell-based; conditions: Escherichia coli, K12, read-out: inhibitory zone diameter
[12] = test system: Staphylococcus aureus 6538P; assay: paper disk method, inhibitory zone diameter; type: cell-based; conditions: read-out: inhibitory zone diameter
[13] = test system: Staphylococcus aureus 209P JC-1; assay: antibacterial activity (Minimum Inhibitory Concentration); type: cell-based; conditions: Staphylococcus aureus 209P JC-1; read-out: MIC
Proteus species C73-34 = assay: as above; type: cell-based; conditions: Proteus species C73-34; read-out: MIC
[14] = test system: Bacillus subtilis ATCC 6633; assay: as above; type: cell-based; conditions: ATCC6633; Bacillus subtilis ATCC 6633; read-out: MIC
Proteus species C73-25 = assay: as above; type: cell-based; conditions: Proteus species C73-25; read-out: MIC
[15] = test system: Staphylococcus aureus C73-10; assay: as above; type: cell-based; conditions: C7310; Staphylococcus aureus C73-10; read-out: MIC
[16] = test system: Staphylococcus aureus C73-21; assay: as above; type: cell-based; conditions: C7321; Staphylococcus aureus C73-21; read-out: MIC
[17] = test system: Bacillus anthracis No. 119; assay: microbe, parasite or virus in culture; type: cell-based
[18] = test system: Staphylococcus aureus C73-4; assay: antibacterial activity (Minimum Inhibitory Concentration); type: cell-based; conditions: C734; Staphylococcus aureus C73-4; read-out: MIC
[19] = 2000 γ/ml, read-out: inhibitory zone diameter

Work on `NC[C@H]1O[C@H](O[C@H]2[C@H](O)C[C@H](N)C[C@@H]2N)[C@H](N)[C@@H](O)[C@@H]1O` [6-Deoxyneamine, 6-deoxyneamine] yielded an MIC [1] of 1.56 µg/mL (≈ 5.09 µM), an MIC [2] of 25 µg/mL (≈ 81.6 µM) and a zone of inhibition at 250 µg/mL (Klebsiella 7; 250 γ/ml) of 0 mm. It also gave a zone of inhibition at 500 µg/mL (Klebsiella 7; 500 γ/ml) of 11.2 mm, a zone of inhibition at 1000 µg/mL (Klebsiella 7; 1000 γ/ml) of 15.6 mm and a zone of inhibition at 2000 µg/mL (Klebsiella 7; [19]) of 17.5 mm. For the same molecule, the MIC (E. coli C73-12) was 12.5 µg/mL (≈ 40.8 µM), the MIC (Proteus morganii Kono) was 12.5 µg/mL (≈ 40.8 µM) and the MIC [3] was 50 µg/mL (≈ 163 µM). For the same molecule, the “antimicrobial activities relative to neamine” value (microorganisms indicated) was “superior to those of the parent compound neamine”, the zone of inhibition at 500 µg/mL [4] was 0 mm and the zone of inhibition at 1000 µg/mL [4] was 12.5 mm. It also gave a zone of inhibition at 2000 µg/mL [4] of 18 mm, a zone of inhibition at 2000 µg/mL (Pseudomonas 1007) of 0 mm and an MIC [5] of 12.5 µg/mL (≈ 40.8 µM). For the same molecule, the MIC (E. coli C73-4) was 25 µg/mL (≈ 81.6 µM), the MIC (E. coli C73-1) was 25 µg/mL (≈ 81.6 µM) and the MIC (Proteus species C73-23) was 25 µg/mL (≈ 81.6 µM). For the same molecule, the MIC [6] was 3.13 µg/mL (≈ 10.2 µM), the MIC (Klebsiella pneumoniae) was 25 µg/mL (≈ 81.6 µM) and the MIC [7] was 3.13 µg/mL (≈ 10.2 µM). For the same molecule, the MIC (Proteus species C73-33) was 100 µg/mL (≈ 326 µM), the “acute toxicity, survival” value (male ICR mice) was “all male ICR mice were survived” and the MIC [8] was 25 µg/mL (≈ 81.6 µM). For the same molecule, the zone of inhibition at 62.5 µg/mL (Mycobacterium 607; 62.5 γ/ml) was 0 mm, the zone of inhibition at 125 µg/mL (Mycobacterium 607; 125 γ/ml) was 11 mm and the zone of inhibition at 250 µg/mL (Mycobacterium 607; 250 γ/ml) was 16.2 mm. The zone of inhibition at 500 µg/mL (Mycobacterium 607; 500 γ/ml) was 21.7 mm, the zone of inhibition at 1000 µg/mL (Mycobacterium 607; 1000 γ/ml) was 28.3 mm and the zone of inhibition at 2000 µg/mL (Mycobacterium 607; 2000 γ/ml) was 33.6 mm. For the same molecule, the MIC [9] was 50 µg/mL (≈ 163 µM), the MIC [10] was 25 µg/mL (≈ 81.6 µM) and the zone of inhibition at 250 µg/mL (Klebsiella 6; 250 γ/ml) was 0 mm. It also gave a zone of inhibition at 500 µg/mL (Klebsiella 6; 500 γ/ml) of 11.1 mm, a zone of inhibition at 1000 µg/mL (Klebsiella 6; 1000 γ/ml) of 14.1 mm and a zone of inhibition at 2000 µg/mL (Klebsiella 6; [19]) of 16.4 mm. For the same molecule, the MIC [11] was 6.25 µg/mL (≈ 20.4 µM), the zone of inhibition at 7.8 µg/mL (E. coli K-12; 7.8 γ/ml) was 0 mm and the zone of inhibition at 15.6 µg/mL (E. coli K-12; 15.6 γ/ml) was 11.2 mm. For the same molecule, the zone of inhibition at 31.2 µg/mL (E. coli K-12; 31.2 γ/ml) was 12.9 mm, the zone of inhibition at 62.5 µg/mL (E. coli K-12; 62.5 γ/ml) was 16 mm and the zone of inhibition at 125 µg/mL (E. coli K-12; 125 γ/ml) was 18.2 mm. The zone of inhibition at 250 µg/mL (E. coli K-12; 250 γ/ml) was 20.3 mm, the zone of inhibition at 500 µg/mL (E. coli K-12; 500 γ/ml) was 21.9 mm and the zone of inhibition at 1000 µg/mL (E. coli K-12; 1000 γ/ml) was 25 mm. For the same molecule, the zone of inhibition at 2000 µg/mL (E. coli K-12; 2000 γ/ml) was 26.7 mm, the zone of inhibition at 7.8 µg/mL ([12]; 7.8 γ/ml) was 0 mm and the zone of inhibition at 15.6 µg/mL ([12]; 15.6 γ/ml) was 0 mm. It also gave a zone of inhibition at 31.2 µg/mL ([12]; 31.2 γ/ml) of 10 mm, a zone of inhibition at 62.5 µg/mL ([12]; 62.5 γ/ml) of 12 mm and a zone of inhibition at 125 µg/mL ([12]; 125 γ/ml) of 15.7 mm. The zone of inhibition at 250 µg/mL ([12]; 250 γ/ml) was 18.1 mm, the zone of inhibition at 500 µg/mL ([12]; 500 γ/ml) was 20 mm and the zone of inhibition at 1000 µg/mL ([12]; 1000 γ/ml) was 22.2 mm. It also gave a zone of inhibition at 2000 µg/mL ([12]; 2000 γ/ml) of 24.2 mm, an MIC [13] of 1.56 µg/mL (≈ 5.09 µM) and an MIC (Proteus species C73-34) of 25 µg/mL (≈ 81.6 µM). For the same molecule, the MIC [14] was 0.78 µg/mL (≈ 2.55 µM), the MIC (Proteus species C73-25) was 6.25 µg/mL (≈ 20.4 µM) and the MIC [15] was 6.25 µg/mL (≈ 20.4 µM). The MIC [16] was 1.56 µg/mL (≈ 5.09 µM), the MIC [17] was 12.5 µg/mL (≈ 40.8 µM) and the MIC [18] was 6.25 µg/mL (≈ 20.4 µM).
